Assay results: PubChem BioAssay AID1259407 (Chemical Carcinogenesis Research Information System (CCRIS), 2018)
Active and inactive are the calls of the source. How the calls were made is not given here.

Test system: CCRIS mutagenicity, Ames/micronucleus/aberration tests
Assay: CCRIS mutagenicity studies
[1] = Test System: AMES SALMONELLA TYPHIMURIUM, Strain/Indicator: TA98, Metabolic Activation: HAMSTER, LIVER, S-9, AROCLOR 1254, Method: STANDARD PLATE
[2] = Test System: AMES SALMONELLA TYPHIMURIUM, Strain/Indicator: TA98, Metabolic Activation: NONE, Method: STANDARD PLATE
[3] = Test System: AMES SALMONELLA TYPHIMURIUM, Strain/Indicator: TA98, Metabolic Activation: RAT, LIVER, S-9, AROCLOR 1254, Method: STANDARD PLATE
[4] = Test System: AMES SALMONELLA TYPHIMURIUM, Strain/Indicator: TA100, Metabolic Activation: HAMSTER, LIVER, S-9, AROCLOR 1254, Method: STANDARD PLATE
[5] = Test System: AMES SALMONELLA TYPHIMURIUM, Strain/Indicator: TA100, Metabolic Activation: NONE, Method: STANDARD PLATE
[6] = Test System: AMES SALMONELLA TYPHIMURIUM, Strain/Indicator: TA100, Metabolic Activation: RAT, LIVER, S-9, AROCLOR 1254, Method: STANDARD PLATE
[7] = Test System: AMES SALMONELLA TYPHIMURIUM, Strain/Indicator: TA1535, Metabolic Activation: HAMSTER, LIVER, S-9, AROCLOR 1254, Method: STANDARD PLATE
[8] = Test System: AMES SALMONELLA TYPHIMURIUM, Strain/Indicator: TA1535, Metabolic Activation: NONE, Method: STANDARD PLATE
[9] = Test System: AMES SALMONELLA TYPHIMURIUM, Strain/Indicator: TA1535, Metabolic Activation: RAT, LIVER, S-9, AROCLOR 1254, Method: STANDARD PLATE
[10] = Test System: AMES SALMONELLA TYPHIMURIUM, Strain/Indicator: TA1537, Metabolic Activation: HAMSTER, LIVER, S-9, AROCLOR 1254, Method: STANDARD PLATE
[11] = Test System: AMES SALMONELLA TYPHIMURIUM, Strain/Indicator: TA1537, Metabolic Activation: NONE, Method: STANDARD PLATE
[12] = Test System: AMES SALMONELLA TYPHIMURIUM, Strain/Indicator: TA1537, Metabolic Activation: RAT, LIVER, S-9, AROCLOR 1254, Method: STANDARD PLATE

Which mutagenic call (Test System: AMES SALMONELLA TYPHIMURIUM, Strain/Indicator: TA97, Metabolic Activation: HAMSTER LIVER S-9, AROCLOR 1254, 30%, Method: PREINCUBATION) does the source give for `CC/C(C)=N\O` here?
The mutagenic call was “inactive; negative”.

And the mutagenic call (Test System: AMES SALMONELLA TYPHIMURIUM, Strain/Indicator: TA97, Metabolic Activation: NONE, Method: PREINCUBATION)?
The mutagenic call was “inactive; negative”.

And the mutagenic call (Test System: AMES SALMONELLA TYPHIMURIUM, Strain/Indicator: TA97, Metabolic Activation: RAT LIVER S-9, AROCLOR 1254, 30%, Method: PREINCUBATION)?
Its mutagenic call is “inactive; negative”.

And the mutagenic call (Test System: AMES SALMONELLA TYPHIMURIUM, Strain/Indicator: TA98, Metabolic Activation: HAMSTER LIVER S-9, AROCLOR 1254, 30%, Method: DESICCATOR)?
The mutagenic call was “inactive; negative”.

And the mutagenic call (Test System: AMES SALMONELLA TYPHIMURIUM, Strain/Indicator: TA98, Metabolic Activation: HAMSTER LIVER S-9, AROCLOR 1254, 30%, Method: PREINCUBATION)?
Its mutagenic call is “inactive; negative”.

What about the mutagenic call [1] of the same molecule?
Its mutagenic call is “inactive; negative”.

And the mutagenic call (Test System: AMES SALMONELLA TYPHIMURIUM, Strain/Indicator: TA98, Metabolic Activation: NONE, Method: DESICCATOR)?
The mutagenic call was “inactive; negative”.

What about the mutagenic call (Test System: AMES SALMONELLA TYPHIMURIUM, Strain/Indicator: TA98, Metabolic Activation: NONE, Method: PREINCUBATION) of the same molecule?
The mutagenic call was “inactive; negative”.

And the mutagenic call [2]?
Its mutagenic call is “inactive; negative”.

What about the mutagenic call (Test System: AMES SALMONELLA TYPHIMURIUM, Strain/Indicator: TA98, Metabolic Activation: RAT LIVER S-9, AROCLOR 1254, 30%, Method: DESICCATOR) of the same molecule?
Its mutagenic call is “inactive; negative”.

What about the mutagenic call (Test System: AMES SALMONELLA TYPHIMURIUM, Strain/Indicator: TA98, Metabolic Activation: RAT LIVER S-9, AROCLOR 1254, 30%, Method: PREINCUBATION) of the same molecule?
Its mutagenic call is “inactive; negative”.

What about the mutagenic call [3] of the same molecule?
The mutagenic call was “inactive; negative”.

And the mutagenic call (Test System: AMES SALMONELLA TYPHIMURIUM, Strain/Indicator: TA100, Metabolic Activation: HAMSTER LIVER S-9, AROCLOR 1254, 30%, Method: DESICCATOR)?
Its mutagenic call is “inactive; negative”.

What about the mutagenic call (Test System: AMES SALMONELLA TYPHIMURIUM, Strain/Indicator: TA100, Metabolic Activation: HAMSTER LIVER S-9, AROCLOR 1254, 30%, Method: PREINCUBATION) of the same molecule?
Its mutagenic call is “inactive; negative”.

What about the mutagenic call [4] of the same molecule?
Its mutagenic call is “inactive; negative”.

And the mutagenic call (Test System: AMES SALMONELLA TYPHIMURIUM, Strain/Indicator: TA100, Metabolic Activation: NONE, Method: DESICCATOR)?
Its mutagenic call is “inactive; negative”.

What about the mutagenic call (Test System: AMES SALMONELLA TYPHIMURIUM, Strain/Indicator: TA100, Metabolic Activation: NONE, Method: PREINCUBATION) of the same molecule?
The mutagenic call was “inactive; negative”.

And the mutagenic call [5]?
The mutagenic call was “inactive; negative”.

What about the mutagenic call (Test System: AMES SALMONELLA TYPHIMURIUM, Strain/Indicator: TA100, Metabolic Activation: RAT LIVER S-9, AROCLOR 1254, 30%, Method: DESICCATOR) of the same molecule?
The mutagenic call was “inactive; negative”.

What about the mutagenic call (Test System: AMES SALMONELLA TYPHIMURIUM, Strain/Indicator: TA100, Metabolic Activation: RAT LIVER S-9, AROCLOR 1254, 30%, Method: PREINCUBATION) of the same molecule?
Its mutagenic call is “inactive; negative”.

What about the mutagenic call [6] of the same molecule?
The mutagenic call was “inactive; negative”.

What about the mutagenic call (Test System: AMES SALMONELLA TYPHIMURIUM, Strain/Indicator: TA1535, Metabolic Activation: HAMSTER LIVER S-9, AROCLOR 1254, 30%, Method: PREINCUBATION) of the same molecule?
The mutagenic call was “active; positive”.

What about the mutagenic call [7] of the same molecule?
Its mutagenic call is “inactive; negative”.

And the mutagenic call (Test System: AMES SALMONELLA TYPHIMURIUM, Strain/Indicator: TA1535, Metabolic Activation: NONE, Method: PREINCUBATION)?
The mutagenic call was “inactive; negative”.

And the mutagenic call [8]?
Its mutagenic call is “inactive; negative”.

What about the mutagenic call (Test System: AMES SALMONELLA TYPHIMURIUM, Strain/Indicator: TA1535, Metabolic Activation: RAT LIVER S-9, AROCLOR 1254, 30%, Method: PREINCUBATION) of the same molecule?
The mutagenic call was “inactive; negative”.

What about the mutagenic call [9] of the same molecule?
The mutagenic call was “inactive; negative”.

And the mutagenic call [10]?
The mutagenic call was “inactive; negative”.

What about the mutagenic call [11] of the same molecule?
The mutagenic call was “inactive; negative”.

What about the mutagenic call [12] of the same molecule?
The mutagenic call was “inactive; negative”.

What about the mutagenic call (Test System: AMES SALMONELLA TYPHIMURIUM, Strain/Indicator: TA1538, Metabolic Activation: HAMSTER, LIVER, S-9, AROCLOR 1254, Method: STANDARD PLATE) of the same molecule?
Its mutagenic call is “inactive; negative”.

And the mutagenic call (Test System: AMES SALMONELLA TYPHIMURIUM, Strain/Indicator: TA1538, Metabolic Activation: NONE, Method: STANDARD PLATE)?
Its mutagenic call is “inactive; negative”.

And the mutagenic call (Test System: AMES SALMONELLA TYPHIMURIUM, Strain/Indicator: TA1538, Metabolic Activation: RAT, LIVER, S-9, AROCLOR 1254, Method: STANDARD PLATE)?
Its mutagenic call is “inactive; negative”.

And the mutagenic call (Test System: MOUSE LYMPHOMA, Strain/Indicator: L5178Y (TK+/TK-), Metabolic Activation: NONE, Method: SUSPENSION/PLATE)?
Its mutagenic call is “active; positive. reevaluation of results: positive”.

What about the mutagenic call (Test System: MOUSE LYMPHOMA, Strain/Indicator: L5178Y (TK+/TK-), Metabolic Activation: RAT, LIVER, S-9, AROCLOR 1254, Method: SUSPENSION/PLATE) of the same molecule?
Its mutagenic call is “inactive; negative. reevaluation of results: negative”.

How did the mutagenic call (End Point: IN VITRO CHROMOSOMAL ABERRATIONS, Test System: CHO CELLS, Metabolic Activation: NONE) turn out when `CCCCC(CC)COP(=O)(OCC(CC)CCCC)OCC(CC)CCCC` (centres undefined) was run?
The mutagenic call was “inactive; negative”.

What about the mutagenic call (End Point: IN VITRO CHROMOSOMAL ABERRATIONS, Test System: CHO CELLS, Metabolic Activation: RAT, LIVER, S-9, AROCLOR 1254) of the same molecule?
Its mutagenic call is “inactive; negative”.

What about the mutagenic call [1] of the same molecule?
The mutagenic call was “inactive; negative”.

What about the mutagenic call [2] of the same molecule?
The mutagenic call was “inactive; negative”.

And the mutagenic call [3]?
Its mutagenic call is “inactive; negative”.

What about the mutagenic call [4] of the same molecule?
Its mutagenic call is “inactive; negative”.

What about the mutagenic call [5] of the same molecule?
Its mutagenic call is “inactive; negative”.

And the mutagenic call [6]?
The mutagenic call was “inactive; negative”.

What about the mutagenic call [7] of the same molecule?
Its mutagenic call is “inactive; negative”.

And the mutagenic call [8]?
Its mutagenic call is “inactive; negative”.

What about the mutagenic call [9] of the same molecule?
The mutagenic call was “inactive; negative”.

What about the mutagenic call [10] of the same molecule?
The mutagenic call was “inactive; negative”.

What about the mutagenic call [11] of the same molecule?
The mutagenic call was “inactive; negative”.

What about the mutagenic call [12] of the same molecule?
Its mutagenic call is “inactive; negative”.
